Patent US20220073642A1, “METHODS OF USING SURUFATINIB IN TREATING ADVANCED PANCREATIC AND EXTRA-PANCREATIC NEUROENDOCRINE TUMORS” (HUTCHISON MEDIPHARMA LIMITED, priority 2020, published 2022)
Values joined by “and” are separate entries in the source; they are usually repeats but may differ in a detail not shown here. Equal entries are not always repeated.

Tests used:
[1] = SANET-ep Phase III study, safety and exposure (NCI CTCAE v4.03); format: in vivo, human; settings: N = 129
Method: (§1) This study is a randomized, double-blind, placebo-controlled, multi-center Phase III study to assess the efficacy and safety of Surufatinib in treating advanced extra-pancreatic neuroendocrine tumors.
(§2) Surufatinib, 300 mg, once daily (QD), orally
(§3) Continuous administration (every 4 weeks as a treatment cycle).

[2] = test system: advanced extra-pancreatic neuroendocrine tumors; assay: SANET-ep Phase III study, efficacy (RECIST 1.1); format: in vivo, human
Excerpt: as §1
The targeted population are progressive, locally advanced or distant metastatic extra-pancreatic NETs (including, but not limited to: lungs, thymus gland and gastrointestinal origins like stomach, duodenum, liver, jejunum, ileum, colon, caecum, vermiform appendix and rectum, and unknown origin) patients with no possibility of radical resection of tumor, and of pathologically with low or intermediate grade (G1 or G2). For Gastrointestinal neuroendocrine tumors (GI-NETs), G1 is defined as <2 mitoses/10 high-power field
(§4) [HPF] and/or <3% Ki-67 index; G2 is defined as 2-20/10 HPF and/or 3-20% Ki-67 index; for NETs originating from the lung and thymus gland, G1 is defined as <2 mitoses/10 HPF and no necrosis; G2 is defined as 2-10/10 HPF and/or foci of necrosis. NETs from origin other than GI-NET, lung and thymus, or from unknown origins should be graded according to the GI-NET grading criteria. If the mitotic ratio and Ki-67 index correspond to different grade, the higher grade should be used to assign classification. All patients must provide tumor samples for central pathology review to check as of whether the diagnostics and grade score comply with inclusion criteria. Patients must have radiological documentation of progression of disease within 12 months prior to randomization. Patients must have previously progressed no more than two types of systemic anti-tumor therapy, including long-acting somatostatin analogs (SSAs), interferon, PRRT (peptide receptor radionuclide therapy), mammalian target of rapamycin (mTOR) inhibitors or chemotherapy (all chemotherapies are deemed as a single therapy regardless of drug or time); patients who are unable or unwilling to receive such treatments are also eligible if all other criteria are met.
Approximately 273 patients will be randomly assigned (in 2:1 ratio) to the following treatment groups based on interactive web response system IWRS:
as §2, §3
(§5) According to the randomized result, the patients will receive continuous oral treatment, every 4-week treatment cycle until progression of disease occurs, intolerable toxicity or other protocol-specified end-of-treatment criteria is met.
(§6) In accordance with RECIST 1.1, the tumor should be assessed every 8 weeks (±3 days) within the first year and every 12 weeks (±3 days) after the patient has been treated for more than one year.
(§7) 1) Primary therapeutic endpoint: PFS (according to RECIST 1.1 criteria)
(§8) 2) Secondary therapeutic endpoint: Objective Response Rate of the tumor (ORR), Disease Control Rate (DCR), Duration of Response (DoR), Time to Response (TTR) and Overall Survival (OS) (according to RECIST 1.1 criteria)

[3] = SANET-p Phase III study, safety and exposure (NCI CTCAE v4.03); settings: N = 113
Excerpt: SANET-p (NCT02589821) is a randomized, double-blind, placebo-controlled Phase III study evaluating the efficacy and safety of surufatinib compared to placebo in patients with progressive, advanced (unresectable local progression or distant metastasis), well-differentiated pancreatic neuroendocrine tumors.
Continuous administration (every 4 weeks as a treatment cycle). Surufatinib can be taken with or without food and should be taken as a single administration per day. It is recommended to take the drug at the same time every day. If the patient vomits after dosing surufatinib, there is no need to make up.
During the treatment, physician should closely monitor the patients and adjust dosage according to the safety and tolerability of individual patients, including dose interruption, dose reduction or permanently discontinue treatment. The dose adjustment should follow the guidance of interruption first and then dose reduction.

[4] = Solubility of surufatinib; format: physicochemical
Excerpt: As used here, the term “surufatinib” (formerly named sulfatinib”)refers to N-(2-(dimethylamino)ethyl)-1-(3-(4-(2-methyl-1H-indol-5-yloxy)pyrimidin-2-ylamino)phenyl)methanesulfonamide or N-(2-(dimethylamino)ethyl)-1-(3-(4-(2-methyl-1H-indol-5-yloxy)pyrimidin-2-ylamino)phenyl)methanesulfonamide. Surufatinib is a small-molecule kinase inhibitor which mainly acts on VEGFRs-1, 2, 3, the FGFR1 and CSF1R. Surufatinib is a study drug formulated as an odorless, white or off-white powder in capsules, with strengths of 50 mg and 200 mg. […] Herein, “surufatinib” may be referred to as “drug,” “active agent,” “a therapeutically active agent,” or “API.”

[5] = test system: advanced, well-differentiated pancreatic neuroendocrine tumors; assay: SANET-p Phase III study, efficacy (RECIST 1.1); format: in vivo, human; settings: for Odds ratio, Disease control rate / Odds ratio, Objective response rate: vs placebo
Excerpt: as §4, with “The targeted population are progressive, locally advanced or distant metastatic, low- or intermediate grade (G1 or G2) pancreatic NETs patients. G1 is defined as <2 mitoses/10 high-power field [HPF]” for “[HPF]”, “index.” for “index; for NETs originating from the lung and thymus gland, G1 is defined as <2 mitoses/10 HPF and no necrosis; G2 is defined as 2-10/10 HPF and/or foci of necrosis. NETs from origin other than GI-NET, lung and thymus, or from unknown origins should be graded according to the GI-NET grading criteria.”
Approximately 195 patients will be randomly assigned (in 2:1 ratio) to the following treatment groups based on interactive web response system IWRS:
as §2, §3, §5, §6, §7, §8

NETs = assay: Phase I dose escalation clinical study, extension stage (NCT02133157); format: in vivo, human; settings: 21 efficacy evaluable patients with NETs
Excerpt: This multi-center, open-label, dose-escalation phase I study investigated the safety, pharmacokinetic characteristics, and preliminary anti-tumor activity of surufatinib in patients with advanced solid tumors. The primary objective was to determine the maximum tolerated dose (MTD), recommended phase II trial dose (RPTD), and the safety profile of Surufatinib when administered to patients with advanced malignant solid tumors. A secondary objective was to evaluate the pharmacokinetic profile of Surufatinib, and exploratory objectives included evaluating the ORR among patients given Surufatinib therapy and determining whether biomarkers for angiogenesis might reflect any clinical efficacy shown by Surufatinib. A modified Fibonacci 3+3 construct was used to design this dose escalation study and determine the MTD of Surufatinib.
In addition, similar efficacy trends have also been shown in the Phase Ib/II study of patients with NETs (Jianming Xu et al. Clin Cancer Res. 25(12):3486-3494). […] Therefore, further clinical investigation of Surufatinib is valuable.

advanced pancreatic NETs = assay: phase 1 study of surufatinib in patients from the United States; format: in vivo, human
Method: Although this trial was conducted fully in a Chinese patient population, the results appear to be applicable to Western patients. Encouraging results have been reported from an ongoing phase 1 study of surufatinib in patients from the United States with heavily treated advanced pancreatic NETs (4 median prior lines of therapy), with an objective response rate of 25.0% (4/16: 3 confirmed partial response and 1 unconfirmed partial response). The safety profile observed in this Western patient population was similar to those observed in the SANET-p trial, as well as in other clinical studies of surufatinib in NETs patients.
As compared with other trials involving patients with extra-pancreatic NETs, the population enrolled in this study was heterogenous. In addition, only Chinese patients were enrolled in this study, which may limit the extrapolation of the results to other populations: however, historically no ethnic differences in the efficacy of antiangiogenic agents for NETs have been reported.

[6] = treatment-related AE, safety population
[7] = treatment-related AE, safety set
[8] = ITT set, 95% CI, listed as surufatinib

Cc1cc2cc(Oc3ccnc(Nc4cccc(CS(=O)(=O)NCCN(C)C)c4)n3)ccc2[nH]1 [Surufatinib, N-(2-(dimethylamino)ethyl)-1-(3-((4-((2-methyl-1H-indol-5-yl)oxy)pyrimidin-2-yl)amino)phenyl)-methanesulfonamide]
Discontinuation due to proteinuria [1]: 1.6%
Discontinuation due to urine protein present [1]: 2.3%
hypertension resulting in dose interruption or reduction [1]: 15.5%
proteinuria resulting in dose interruption or reduction [1]: 29.5%
treatment discontinuation for adverse events [1]: 14.7%
Treatment-related adverse event, any grade ([1]; safety population): 97.7%
ALT increased, ≥Grade 3 [1, 6]: 3.1%
AST increased, ≥Grade 3 [1, 6]: 3.9%
Anemia, ≥Grade 3 [1, 6]: 4.7%
Hyperbilirubinemia, ≥Grade 3 [1, 6]: 3.9%
Hypertension, ≥Grade 3 [1, 6]: 36.4%
Protein urine present, ≥Grade 3 [1, 6]: 3.9%
Proteinuria, ≥Grade 3 [1, 6]: 19.4%
Duration of response ([2]; BIIRC-assessed): 5.6 months
Time to response ([2]; BIIRC-assessed): 2.9 months
Disease control rate ([2]; BIIRC-assessed, N = 126): 77.8%
objective response rate ([2]; BIIRC-assessed, N = 126): 7.9%
Best overall response: Partial response ([2]; Investigator-assessed, N = 126): 13 n
Disease control rate ([2]; Investigator-assessed, N = 126): 86.5%
objective response rate ([2]; Investigator-assessed, N = 126): 10.3%
median progression-free survival as assessed by the investigators ([2]; N = 129, 300 mg QD orally): 9.2 months
progression-free survival HR vs placebo, BIIRC-assessment ([2]; in vivo): 0.66
progression-free survival HR vs placebo, investigators ([2]; in vivo): 0.33
progression-free survival HR vs placebo, post-hoc adjudicated BIIRC results ([2]; in vivo): 0.57
Duration of response ([2]; investigator-assessed): 5.6 months
Time to response ([2]; investigator-assessed): 3.7 months
reduction of the risk of disease progression or death compared with placebo ([2]; investigators): 67%
HR for median progression-free survival, NETs of unknown or uncommon tumor origins ([2]; post-hoc subgroup analysis): 0.50
median progression-free survival, BIIRC-assessment ([2]; sensitivity analysis): 7.4 months
median progression-free survival, patients previously treated with everolimus ([2]; subgroup, 7.8% of patients): 7.4 months
on-treatment deaths attributed to adverse events [3]: Two
Arthralgia, ≥Grade 3 [3, 7]: 0 n
Back pain, ≥Grade 3 [3, 7]: 0 n
Bilirubin conjugated increased, ≥Grade 3 [3, 7]: 0 n
Blood creatinine increased, ≥Grade 3 [3, 7]: 0 n
Blood lactate dehydrogenase increased, ≥Grade 3 [3, 7]: 0 n
Blood thyroid stimulating hormone increased, ≥Grade 3 [3, 7]: 0 n
Decreased appetite, ≥Grade 3 [3, 7]: 0 n
Dizziness, ≥Grade 3 [3, 7]: 0 n
Fatigue, ≥Grade 3 [3, 7]: 0 n
Haemoglobin increased, ≥Grade 3 [3, 7]: 0 n
Headache, ≥Grade 3 [3, 7]: 0 n
Hyperbilirubinaemia, ≥Grade 3 [3, 7]: 0 n
Hypercholesterolaemia, ≥Grade 3 [3, 7]: 0 n
Hypoalbuminaemia, ≥Grade 3 [3, 7]: 0 n
Hypothyroidism, ≥Grade 3 [3, 7]: 0 n
Nausea, ≥Grade 3 [3, 7]: 0 n
Occult blood positive, ≥Grade 3 [3, 7]: 0 n
solubility in methyl alcohol or ethyl alcohol ([4]; methyl alcohol or ethyl alcohol): slightly soluble
solubility in water ([4]; water): insoluble
Duration of response ([5]; BIIRC-assessed): 15.2 months
Time to response ([5]; BIIRC-assessed): 3.9 months
Best overall response: Non-complete response, non-progressive disease ([5]; BIIRC-assessed, N = 104): 0 n
Odds ratio, Disease control rate ([5]; BIIRC-assessed): 2.5
Odds ratio, Objective response rate ([5]; BIIRC-assessed): 8.8
PFS (BIIRC assessment), median ([5]; ITT set, N = 113): 13.9 month
PFS (Investigator's assessment), median ([5]; ITT set, N = 113, 300 mg QD orally): 10.9 month
PFS (BIIRC assessment), HR (Surufatinib/Placebo) ([5]; ITT set, 95% CI): 0.339 (0.209, 0.549)
PFS (Investigator's assessment), HR (Surufatinib/Placebo) ([5]; ITT set, 95% CI): 0.491 (0.319, 0.755)
PFS (BIIRC assessment), HR (Surufatinib/Placebo) [5, 8]: 0.34
PFS (Investigator's assessment), HR (Surufatinib/Placebo) [5, 8]: 0.49
DoR, median ([5]; Table 4, N = 15): 15.2 month
TTR, median ([5]; Table 4, N = 15): 3.9 month
Disease control rate, BIIRC-assessed ([5]; interim ITT set, N = 104): 84.6%
Disease control rate, investigator-assessed ([5]; interim ITT set, N = 104): 80.8%
Objective response rate, BIIRC-assessed ([5]; interim ITT set, N = 104): 14.4%
Objective response rate, investigator-assessed ([5]; interim ITT set, N = 104): 19.2%
median PFS longer than in the placebo cohort ([5]; investigator assessment): 7.2 months
reduction of the risk of disease progression/death vs placebo ([5]; investigator assessment): 50.9% and 51%
reduction of the risk of disease progression/death vs placebo ([5]; investigator assessment, listed as surufatinib): 51%
Duration of response ([5]; investigator-assessed): 7.4 months
Time to response ([5]; investigator-assessed): 3.8 months
Best overall response: Partial response ([5]; investigator-assessed, N = 104): 20 n
Odds ratio, Disease control rate ([5]; investigator-assessed): 2.1
Odds ratio, Objective response rate ([5]; investigator-assessed): 12.4
DCR, OR (odds ratio) vs placebo ([5]; investigator, 95% CI): 2.1 (0.9, 4.8)
ORR, OR (odds ratio) vs placebo ([5]; investigator, 95% CI): 12.4 (1.8, 522.8)
DCR (NETs): 85.7%
ORR (NETs): 38.1%
not evaluable for response (NETs): 3 patients
patients achieved PR (NETs): 8 patients
patients achieved SD (NETs): 10 patients
objective response rate (advanced pancreatic NETs; advanced pancreatic NETs, 2/15): 13.3%
Disease control rate (advanced pancreatic NETs; advanced pancreatic NETs, 11/15): 73.3%
objective response rate (advanced pancreatic NETs; heavily treated advanced pancreatic NETs, 4/16 (3 confirmed, 1 unconfirmed partial response)): 25.0%
